How the values were obtained:
Type in all cases: in vivo
Sprague Dawley rats = assay: Elevated Plus Maze in rats, intranasal FQSE; settings: FQSE 0.5 mg/kg i.n.; diazepam 2 mg/kg IP
Description: The five doses of FQSE (SEQ ID NO:10) (0.01, 0.1, 0.5, 1 and 3 mg/kg, CS, Menlo Park, CA) were prepared fresh for each test day in sterile saline and administered intranasally (i.n.) 30 minutes prior to testing. Fifteen rats per group per peptide dose were tested with the exception that there were twenty rats in the vehicle (0) group. Each dose was administered in a randomized order across rats. Prior to dosing, the rats were lightly anesthetized (till loss of righting reflex) with isoflurane (2.5%, 0.5 L/min oxygen), placed in the recumbent position, then a thin plastic pipette (Fischer Scientific) inserted into the nares and peptide administered at a volume of 15-20 uL per nares. Individuals performing the behavioral tests were blind to drug treatment.
Rats were first allowed to acclimate to the testing room for 30 minutes while in their home cage. During testing, a rat was placed on the maze which consists of two open arms (45-cm long×10-cm wide), two closed arms (45-cm long×10-cm wide×30-cm high), and a middle compartment (4-cm long×4-cm wide) forming the shape of a plus located 50-cm above the floor, for 5-min. The test session was digitally recorded for later analyses (Ethovision, XT12). All testing was conducted under red lighting. An experimenter observed the rat during testing through a specialized observation window built into the door of the behavioral testing room. […]

[1] = tested on: Wistar rats after chronic unpredictable mild stress; assay: CUMS model: Elevated Plus Maze test
Description: During stress, the animals were placed in individual cells and exposed to stressful conditions each day for 26 days. Two stressors were used daily, applied in the following order: • Day 1. 10 am-6 pm, rats were placed in a cold room for an hour. From 6 PM to 10 am the lights were turned on and off every 2 hours. • Day 2. 10 am-6 pm, cage tilted to 45°. From 6 PM to 10 am water deprivation. • Day 3. 10 am-6 pm, stroboscopic light. From 6 PM to 10 am the light was left on overnight. • Day 4. 10 am-6 pm, wet bedding. From 6 PM to 10 am the animals were put in a small mouse cage. • Day 5. 10 am-6 pm, no bedding. From 6 PM to 10 am the lights were turned on and off every 2 hours. • Day 6. 10 am-6 pm, a new rat was placed in the cage (6-month-old). From 6 PM to 10 am the light was left on overnight. • Day 7. 10 am-6 pm, white noise. From 6 PM to 10 am a stroboscopic light was turned on at night. • Day 8-26. Repetition of previously used stressors in the specified sequence.
Experimental substances were administered daily starting from the 58-59 day of the experiment. The administration took place 30 minutes before the start of behavioral testing. On days when there were no tests, the substances were administered in the morning.
The Elevated Plus Maze test was used to assess the level of anxiety, motor, and exploratory activity of laboratory animals. The apparatus consisted of two closed and two open arms opposite to each other (arm's length 45 cm) with the height of the sides of the closed arm −10 cm. The entire installation was raised on a stand 70 cm above the base. Rats were placed in the center of the maze with their heads facing the open arm. Within 5 minutes the number of exits to open arms and time spent in them, the number of transitions between arms, the time of rest, the duration and number of grooming acts, the number of stretch-attend postures into the open arms of the maze, and the number of rears were recorded. Normally, rodents tend to stay in the dark arms.

BALB/C mice [2] = assay: Porsolt swim test (two-day modification) in mice; settings: ip; Diazepam 0.75 mg/kg
Description: (§1) After an adaptation period, the test substance was intraperitoneally injected into mice. Behavioral parameters were measured in 30 minutes after injection. The tests were administered as follows: day 1—the Open field test, day 3—the Elevated plus maze test, day 5—the Marble burying test, days 12-13—the Porsolt swim (two-day modification) test.
In the Porsolt Swim test, two tests were conducted in two days. The installation is a transparent cylinder, 30 cm in height, 10 cm in diameter, filled with water (temperature about 21-23° C.) to the mark of 25 cm height. On the first day each animal was placed into the cylinder for 10 minutes. Behavioral parameters were not registered. On the second day, the animals were placed into the cylinder for 5 minutes. The following parameters were measured: duration of active (vigorous movements of all limbs) and passive (weak movements of hind limbs) swimming, as well as immobility (immobilization) (Porsolt et al. (1977) Behavioral despair in mice: a primary screening test for antidepressants. Arch Int Pharmacodyn Ther. 229(2):327-36). After each test, the mice were placed into a heated cell to dry.

BALB/C mice [3] = assay: Marble Burying test in mice; settings: ip; Diazepam 0.75 mg/kg; FQSE 5 mg/kg; 30 minutes
Description: as §1
In the marble burying test, the installation is a standard T3 cage (19 cm×29 cm×13 cm) filled with bedding material. The standard glass marbles (15 mm in diameter, weight 5.2 g, arbitrary color) were used for the test. Twenty marbles were evenly spaced on the surface in 4 rows, 5 pieces each. The animal was placed in the testing cage for 30 minutes. At the end of the period, after the animal was carefully removed, the number of marbles that were more than two-thirds covered with bedding material was counted.
All substances were injected intraperitoneally in a volume of 10 μl of solution per 1 gram of animal weight 30 minutes prior to behavioral testing.

CN1C(=O)CN=C(c2ccccc2)c2cc(Cl)ccc21 [Diazepam]
percent time on the open arm (Sprague Dawley rats): 10.8±1.11% | result obtained in EPM (1 administration) ([1]; CUMS, FQSE 0.5 mg/kg, Diazepam): sedative effects | time spent on the open arms ([1]; Diazepam 0.5 mg/kg i.p., 1 injection, vs stressed animals treated with solvent): increase | freezing time ([1]; Diazepam 0.5 mg/kg i.p., vs control group): increase of freezing | tested parameters (duration of active and passive swimming, immobility time) (BALB/C mice [2]): did not lead to the changes in any tested parameter | number of marbles buried (BALB/C mice [3]): 1.2±0.39
